Four molecules from patent US20260317314A1, “NITROGEN-CONTAINING HETEROCYCLIC COMPOUND AND USE THEREOF” (JIANGSU DEYUAN PHARMACEUTICAL CO.,LTD., priority 2023, published 2026) can be followed below.

The term Cmax denotes the peak of the concentration-time curve.

A short description of series [1]: In vivo pharmacokinetics study in rats. Also noted: species or system SD rat. The following applies: male SD rats, oral 2 mg/kg.
Series [2] can be described thus: In vivo pharmacokinetic study in cynomolgus monkeys. Also noted: species or system cynomolgus monkey. The conditions noted are these: male cynomolgus monkeys.
The test system of series [3] is plasma protein. Description: Plasma protein binding rate test, SD rat (equilibrium dialysis). The format is in vitro ADME. The following applies: 37° C., 4 hours. From the text:
(§1) The sample was thoroughly mixed.
For orientation: In equilibrium dialysis only unbound substance equilibrates across the membrane.

The subject of series [4] is plasma protein. Description: Plasma protein binding rate test, cynomolgus monkey (equilibrium dialysis). It counts as in vitro ADME. The following applies: 37° C., 4 hours.
Description: as §1

The subject of series [5] is plasma protein. Description: Plasma protein binding rate test, human (equilibrium dialysis). It counts as in vitro ADME. The following applies: 37° C., 4 hours.
Description: as §1

The next series has as its system MDR1-MDCKII cells. Description: Permeability test in MDR1-MDCKII monolayer cell model. The format is in vitro ADME. The conditions noted are these: 2 μM, pH 7.40, 2.5 hours, 37±1° C. On the procedure: Experimental objective: The permeability and efflux ratio of the compound of the present disclosure were determined using the MDR1-MDCKII monolayer cell model to assess its membrane permeability and potential for P-gp-mediated efflux transport.
Experimental protocol: MDR1-MDCKII cells (obtained from the Netherlands Cancer Institute) were seeded in 96-well plates (obtained from Corning) at a cell density of 3.33×10^5 cells/mL and cultured for 4 to 7 days to form confluent cell monolayers. Hank's balanced salt solution containing 10 mM HEPES (pH 7.40) was used as the transport buffer. The test compound was evaluated for bidirectional transport at a concentration of 2 μM, with the DMSO concentration in the incubation system maintained below 1%. After adding the samples, the cell plate was incubated at 37±1° C., 5% CO2, and saturated humidity for 2.5 hours. All samples were quantitatively analyzed using the LC-MS/MS method. The apparent permeability coefficient (Papp, cm/s) and efflux ratio (ER) were calculated using the following formula. Apparent permeability coefficient (Papp, cm/s) was calculated using the following formula: Papp=(dCr/dt)×Vr/(A×C0). Herein, dCr/dt represents the cumulative concentration of the compound at the receiving end per unit time (μM/s); Vr is the volume of the solution at the receiving end (with solution volumes at the apical and basolateral ends being 0.075 mL and 0.250 mL, respectively); A is the relative surface area of the cell monolayer (0.143 cm^2); C0 is the initial concentration of the test substance at the dosing end (μM) or the peak area ratio of the reference substance. The efflux ratio was calculated using the following formula: ER=Papp(BA)/Papp(AB).

Series [6] in a line: In vitro liver microsome metabolic stability study. The conditions noted are these: human liver microsomes 0.5 mg/mL, compound 1 μM, 37° C., up to 60 minutes. It counts as in vitro ADME. As to the method:
Stock solution: 10 mM in DMSO.
Only 54 μL of microsomal working solution, 6 μL of NADPH regeneration system working solution, and 180 μL of stop solution were added to the blank plate.
LC-MS/MS analysis was performed.

Series [7] can be described thus: Plasma protein binding rate test, SD rat (equilibrium dialysis). The following applies: 37° C., read-out: Plasma protein binding rate (%) in SD rats (converted). It counts as in vitro ADME.
Description: as §1

As for `CCC(=O)N[C@@H]1CCCc2c(-c3cc4c(s3)N(C)C(=O)CC4)cncc21` (single isomer, unassigned) [Compound 017], the figures for the T1/2 in series [1] and in series [2] (oral 1 mg/kg) were 1.34 h and 5.30 h, respectively. Besides, the AUC0-24 h in series [1] (plasma) turned out to be 8.129 µM·h; in series [2] (oral 1 mg/kg, plasma), 7.292 µM·h. The “Plasma protein binding rate (%) in SD rats” value in the series with plasma protein [3] is listed as 94.9%. In the series on plasma protein [4], the “Plasma protein binding rate (%) in cynomolgus monkeys” value is 78.1%. Also, in the series with plasma protein [5], the “Human plasma protein binding rate (%)” value is 82.7%.
In turn, `CCC(=O)N[C@@H]1CCCc2c(-c3cc(F)c4c(ccc(=O)n4C)c3)cncc21` (single isomer, unassigned) [Compound 018] had a T1/2 in series [2] (oral 1 mg/kg) of 5.35 h. Also, the AUC0-24 h in series [2] (oral 1 mg/kg, plasma) stood at 7.586 µM·h. Moreover, the “Apparent permeability coefficient (Papp (AB))” value with MDR1-MDCKII cells is given as 24.6 10^-6 cm/s. Further, the “Intrinsic hepatic clearance CLint(liver)” value in series [6] is reported as below 8.6 mL/min/kg. In addition, the fraction unbound at 4 h in series [7] was 0.08. Besides, in the series with plasma protein [4], the “Plasma protein binding rate (%) in cynomolgus monkeys” value turned out to be 79.5%. Also, the “Human plasma protein binding rate (%)” value with plasma protein [5] is 80.9%.
As to `CCC(=O)NC1CCCc2c(-c3cc4ccc(=O)n(C)c4cc3F)cncc21` (single isomer, unassigned) [Compound 019], in series [2] (oral 3 mg/kg), the F is recorded as 113% and the T1/2 is on record as 4.65 h. Further, in series [2] (oral 3 mg/kg, plasma), the AUC0-24 h was determined as 23.864 µM·h and the Cmax was found to be 3.79 µM. In addition, the “Plasma protein binding rate (%) in SD rats” value in the series with plasma protein [3] was 87.1%. Besides, in the series on plasma protein [4], the “Plasma protein binding rate (%) in cynomolgus monkeys” value is listed as 75.2%. For the same molecule, in the series with plasma protein [5], the “Human plasma protein binding rate (%)” value was determined as 76.2%.
Turning to `CCC(=O)N[C@H]1CCOc2c(-c3ccc4c(ccc(=O)n4C)c3)cncc21` (single isomer, unassigned) [Compound 044], the “Apparent permeability coefficient (Papp (AB))” value in the series on MDR1-MDCKII cells is 11.0 10^-6 cm/s. Further, the “Plasma protein binding rate (%) in cynomolgus monkeys” value in the series on plasma protein [4] amounted to 66.4%. In addition, the “Human plasma protein binding rate (%)” value in the series on plasma protein [5] stood at 70.5%.
